Assay results published in patent publication US9586994B2, “CD44V6-derived peptides for treating breast cancer” (KARLSRUHER INSTITUT FÜR TECHNOLOGIE, priority 2012, dated 2017).
No end group written: not given here. MeO‑PEG‑COOH = methoxy-PEG carboxylic acid, 750 or 2000 Da

Legend:
HT29 colon cancer cells = test: Scatter assay, HGF-induced HT29 colon cancer cells; format: cell-based, human; conditions: HGF 10 ng/ml, pre-incubated with peptide
Protocol: A scatter assay was performed additionally. HT29 colon cancer cells were grown in medium containing 10% FCS. One day after seeding, the cells were starved. On the third day, the cells were induced with HGF (10 ng/ml) and pre-incubated with either no peptide, ctrl-peptides (SEQ ID NO: 15), non-pegylated v6-peptides (SEQ ID NO: 11) or the pegylated peptides, namely PEG-rat control peptide and PEG-rat CD44v6 peptide.

CD44v6 [1] = test: HGF-induced activation of Met and ERK in L3.6pl cells (Western blot); format: cell-based, human; conditions: peptide before induction with 10 ng/ml HGF
Protocol: (§1) Serum-starved cells (24 hours) were induced with the growth factor HGF (10 ng/mL) at 37° C. for 5 minutes. Where indicated, the cells were treated with peptides (100 ng/ml) prior to induction at 37° C. for 10 minutes (100 ng/mL CD44v6 peptide or control peptide). Following the induction with HGF, cells were washed with ice-cold phosphate-buffered saline (PBS). To detect activated Met and ERK, cells were lysed in sodium dodecyl sulfate (SDS)—sample buffer containing 100 mM dithiothreitol (DTT), boiled and subjected to western blot analysis using antibodies against phospho-Met and ERK. The loading controls were performed on the same blot after stripping (62.5 mM Tris, pH 6.8, 2% SDS, 0.8% DTT) by probing with the Met respectively Erk antibody. Blots were stained using the enhanced chemiluminescence system (Thermo Fisher Scientific, Schwerte, Germany). Bands in western blot analysis were quantified with the program Image J (National Institutes of Health).
To expand the studies to human pancreatic tumors, the highly metastatic human pancreatic carcinoma cells L3.6pl (Bruns, et al. Neoplasia (1999), 1(1):50-62) were investigated. These cells originate from the […] cells that have been passaged several times in the liver and the pancreas, a step that rendered them more and more metastatic. It was confirmed that Met is dependent on CD44v6 for its activation and signaling in these cells (FIG. 19A). The L3.6pl cells were treated with HGF in the presence or absence of a human v6 peptide of SEQ ID NO: 2 or SEQ ID NO:6 and Met activation and downstream signaling to ERK was measured. Phosphorylation of both Met and ERK was inhibited by the human v6 peptide. Treatment with a corresponding rat v6 peptide (ctrl peptide, SEQ ID NO: 10 or 11) had no influence on receptor activation and signal transduction (FIG. 19A).
The contribution of CD44v6 to Met signaling in the human epithelial pancreatic cancer cells L3.6pl (derived from Colo 357), the cervix carcinoma cells HeLa and the colon cancer cells HT29 were analysed using the CD44v6 peptide (v6 14mer; v6 5mer tested as well, data not shown).

BSp73ASs6 cells [2] = test: Rat syngeneic model, subcutaneous BSp73ASs6 tumors, treatment from one week (metastasis formation); format: in vivo; conditions: rats, s.c. BSp73ASs6
Protocol: In the case of the rat syngeneic model, 1×10^6 pancreatic cells (BSp73AS and its transfectants) were subcutaneously injected into the right posterior flank of the animals. Tumors developed for four weeks. During this time period animals injected with BSp73ASs6 cells expressing Met-shRNA or control-shRNA received doxycycline in the drinking water. At the end of the experiment, primary tumors were isolated. Lungs and axillary lymph nodes were analyzed. The tissues were incubated for 24 h in a zinc-fixative (0.5 g calcium acetate, 5.0 g zinc acetate, 5.0 g zinc chloride, in 1 L 0.1 M Tris pH 7.4) and embedded in paraffin for further analysis. In case of peptide or antibody treatment tumors developed for one week before the first treatment. Where indicated, animals received 200 μg of peptide or antibody per injection three times per week for four weeks. Tumor growth was monitored weekly using a caliper Animals were killed at day 28 or 30 after start of the treatment.
For histomorphological analysis paraffin-embedded sections of lungs were stained with hematoxylin and eosin and periodic acid-Schiff (H&E or PAS). Serial sections of the whole tissue blocks were examined by analyzing slices every 20 μm; in each slice, the presence and the extension of the metastatic deposit was assessed, according to the procedure routinely used by pathologists to evaluate the presence of micrometastases.
Rat peptides had the sequences KEKWFENEWQGKNP (SEQ ID NO: 10) and NEWQG (SEQ ID NO: 11). BSp73ASs6 cells were subcutaneously injected into syngeneic rats and rat CD44v6 peptides of SEQ ID NO: 10 or SEQ ID NO: 11 (or mouse control peptides) or the CD44v6 antibody (or IgGs as a control) were injected intra-tumoral or intravenously three times a week. […] This is compatible with the fact that also BSp73AS cells or BSp73ASv1-10Δv6 cells can induce the formation of primary tumors similarly to the v6 transfectants.

L3.6pl cells [3] = test: Human orthotopic pancreatic cancer model, L3.6pl cells in nude mice, treatment from day 7; format: in vivo, mouse; conditions: L3.6pl orthotopic model; 5mer instead of 14mer
Protocol: In the case of the human orthotopic model, L3.6pl pancreatic carcinoma cells (passage 24-26) were suspended in Hank's balanced salt solution (Invitrogen, Karlsruhe, Germany) after trypsinization. The cells were injected orthotopically in the pancreas of male nude mice as described (Bruns C J et al. (1999) Neoplasia 1(1):50-62). Two groups of 15 mice each were injected i.p. 7 days later with either the human v6 peptide respectively rat control peptide (20 μg). For all experiments described and depicted herein either the rat 14mer control peptide or the human 14mer peptide were used. All experiments were then repeated with the rat 5mer control peptide or the human 5mer peptide (N-R-W-H-E, SEQ ID NO: 2). […] The injection was repeated three times per week for 21 days. Two days after the last treatment the animals were killed.
7 μm thick paraffin sections were deparaffinized and rehydrated. For P-Met staining antigen unmasking was achieved by boiling the slides in 1 mM EDTA pH 8.0 followed by incubation for 15 minutes at a sub-boiling temperature, for CD31 staining the sections were treated with Proteinase K (8 μg/ml) for […] at 37° C. For immunofluorescence staining of P-Met, unspecific binding was blocked with 5% goat serum (DAKO, Glostrup, Denmark) (diluted in 1×PBS/0.3% Triton X-100) for 60 minutes. In the case of immunohistochemistry, endogenous peroxidases were at first blocked with 3% H2O2 in PBS followed by incubation with biotin blocking system (Dako, Glostrup, Denmark) and then unspecific binding was inhibited by incubation with 5% FCS in PBS was used for blocking. The sections were incubated with the P-Met antibody (D26, dilution 1:50 in 1×PBS/1% BSA/0.3% Triton X-100), Met antibody (C-28, dilution 1:50), GFP antibody (sc-101525, dilution 1:50) or CD31 antibody (5 μg/ml) over night or VFF18 (5 μg/ml) o/n at 4° C. After washing in PBS the sections were incubated with Alexa Fluor R 546 goat anti-rabbit (in case of immunofluorescence P-Met and Met staining, dilution 1:500) or a biotinylated secondary antibody (for immunohistochemical stainings rabbit anti-rat antibody for VFF18 and CD31, goat anti-rabbit for P-Met, cleaved Caspase-3 and cleaved Caspase-8 and rabbit anti-mouse for GFP, dilution 1:500) for 45 minutes. For DAB staining the sections were treated with a streptavidin-peroxidase conjugate (Dako, Glostrup, Denmark) and developed with DAB (3,3′-diaminobenzidine) substrate system (3,3′-diaminobenzidine; Biozol, Eching, Germany) For immunofluorescence DAPI was used for nuclear staining.
To test the effect of the peptide on tumor growth and metastasis formation the L3.6pl cells were orthotopically injected into the pancreas of immunosuppressed mice (NCI-nu). […] The primary tumor expresses a high amount of CD44v6 (FIG. 19B). […] Indeed, human HGF in a concentration of 3375 pg/ml was detected in the supernatant (see Material and Methods) after 5 days of culture (data not shown).

BSp73ASs6 cells [4] = test: Staining of fixed BSp73ASs6 cells with DY681-labeled peptides (confocal microscopy); format: binding, rat; conditions: 1 hour with DY681-labeled peptide
Protocol: (§2) ASs6 or L3.6pl cells were seeded at 5,000 cells/well of a Lab-TekR Chamber Slide™ (Nunc, Napierville, Ill., USA). On the following day the cells were washed with cold PBS and fixed with 4% Formalin for 30 min at RT. Unspecific binding was blocked with 1% BSA in PBS for 1 hour at RT. The cells were incubated for 1 hour with the DY681-labeled peptides. After three washing steps with PBS the cover slips were mounted with Fluorescence Mounting Medium (Dako, Glostrup, Denmark) and the immunofluorescence was measured by a laser scanning confocal microscope Leica TCS2 SP2 (Exton, Pa., USA) and processed using Leica confocal software. A 20× objective was used for imaging.

CD44v6 [5] = test: HGF-induced Met/Erk activation in BSp73ASs6 cells with DY681-labeled peptides; format: cell-based, rat; conditions: FIG. 18A right side, activation of Erk determined
Protocol: as §1
In order to test the specificity of the binding of CD44v6 peptides to the tumor site and to the metastases and to estimate the binding kinetics in vivo, near infrared fluorescence (NIRF) imaging with the Optix MX2 was. For this purpose two CD44v6 peptides were labeled with the fluorophore DY681: a rat specific one, rv6 pep Dy681 and a mouse specific one, mv6 pep Dy681, as a control.

BSp73ASs6 tumors = conditions: rat
From the text: To avoid autofluorescence of fur, rats were shaved around the tumor prior to imaging. Subsequently, animals were anesthetized using 2% isoflurane and gently fixed on the devices' heated plate for the entire time of data acquisition. To reduce fluorescence background, rats were fed with chlorophyll-reduced food (Provimi Kliba AG, Kaiseraugst, Switzerland) for one week prior NIRF imaging. All in vivo analyses were preceded by native scans of animals without any injection of the fluorescent probe. For in vivo analysis, rats were injected with 200 μg DY681-labeled rat v6 11 mer peptide or the human v6 11 mer peptide via the tail vein. Controls were injected with the equal amount of DY681-labeled mouse v6 11mer peptide. […] All peptides were labeled with the fluorescent dye DY681. Data were acquired at the indicated time after injection of the peptides. […]
DY681 fluorescence was measured using excitation at 670 nm in combination with a 700 nm long-pass emission filter. […] Data sets were analyzed with OptiView (ART).
For in vivo experiments, BSp73ASs6 cells were injected subcutaneously into syngeneic rats. […] The accumulation of the fluorescence was measured in the tumor region by Optix MX2 at the indicated time points. […] Then, in vivo binding kinetics of the Dy681-labeled v6 peptides to the subcutaneous tumors were determined. […]

L3.6pl cells [6] = test: Staining of fixed L3.6pl cells with DY681-labeled peptides (confocal microscopy); format: binding, human; conditions: DY681-labeled peptide
Protocol: as §2

CD44v6 [7] = test: Activation assay with pegylated peptides: HGF-induced Met and ERK activation in BSp73ASs6 cells; format: cell-based, rat
Protocol: The PEG-control peptide and PEG-rat CD44v6 peptide were compared for their ability to block HGF induced activation of the receptor tyrosine kinase Met and ERK.
Rat pancreatic cancer cells BSp73ASs6 (also designated Ass6) were incubated for 10 min at 37° C. with either ctrl-peptides (SEQ ID NO: 15), non-pegylated v6-peptides (SEQ ID NO: 11) and increasing concentrations of the pegylated peptides, namely PEG-rat control peptide and PEG-rat CD44v6 peptide, before induction with HGF (10 ng/ml; 5 min at 37° C.).
Activation of ERK and Met was determined by standard SDS and Western Blotting techniques using a phospho-Met and phospho-Erk specific antibody (phospho-Met clone D16 cell signaling, phospho-Erk p42/44 cell signaling)

[8] = peptide 10 min 37° C., HGF 10 ng/ml 5 min

| Substance | Dissociation and migration of cells away from cell cluster (scatter) (HT29 colon cancer cells) | HGF-induced phosphorylation/activation of ERK (CD44v6 [1]) | HGF-induced phosphorylation/activation of Met (CD44v6 [1]) | Metastasis (axillary lymph nodes and lungs) (BSp73ASs6 cells [2]; 200 μg per injection i.t. or i.v., three times a week, four weeks, start after one week) | Metastasis and micro-metastasis in lung sections (PAS and H&E histology) (BSp73ASs6 cells [2]; 200 μg three times a week) | Outgrowth of primary tumors (BSp73ASs6 cells [2]; treatment for 28 days) | Outcome of all experiments repeated with 5mer peptides, compared with 14mer (L3.6pl cells [3]) | Binding to BSp73ASs6 cells in tissue culture (BSp73ASs6 cells [4]) | Met activation (HGF-induced) with DY681-labeled peptides (CD44v6 [5]) | Ex vivo fluorescence in excised tumors and lungs (BSp73ASs6 tumors) | Binding to L3.6pl cells in cell culture (L3.6pl cells [6]) | Efficiency of inhibition of ERK, pegylated vs. non-pegylated peptides (CD44v6 [7]; HGF 10 ng/ml) | HGF dependent activation of ERK (CD44v6 [7]; [8]) | HGF dependent activation of Met (CD44v6 [7]; [8]) |
| --- | --- | --- | --- | --- | --- | --- | --- | --- | --- | --- | --- | --- | --- | --- |
| NEWQG [SEQ ID NO: 11, rat CD44v6 5mer peptide] | lead to dissociation and migration of cells away from these cell cluster | no influence | no influence | completely inhibited metastasis | no metastasis nor micro-metastasis could be detected | not influenced | same results as for the 14mer peptides | – | – | – | – | – | – | – |
| WFENEWQGKNP (also: DY681 fluorescent dye label) [rv6 pep Dy681, rat 11mer labeled with the fluorescent dye DY681] | – | – | – | – | – | – | – | bound to BSp73ASs6 cells | inhibited Met activation | Fluorescence intensities could only be detected in tumors and in specific areas of the lungs | not | – | – | – |
| PEG-NEWQG ({MeO‑PEG‑COOH}-NEWQG; also: PEG 750 or 2000 Da) [PEG-rat CD44v6 peptide, rat 5mer NEWQG coupled to MeO-PEG-COOH (750 Da and 2000 Da)] | lead to dissociation and migration of cells away from these cell cluster | – | – | – | – | – | – | – | – | – | – | even more efficient | efficient in inhibiting | efficient in inhibiting |
